Data set [1] relates to triglycerides. Kind of data set: Antilipemic effect: percent triglycerides inhibition in plasma of rats given an olive oil-cholesterol mixture. Format: in vivo, male Wistar rats. The settings on record: for inhibition in vivo at 100 mg/kg: read-out: Anti-lipemic effect, TG (percent triglycerides inhibition); for inhibition in vivo at 200 mg/kg: read-out: Anti-lipemic effect, TG (percent triglycerides inhibition), asterisked. The protocol: (§1) The above compounds of this invention are tested by the following methods for antilipemic effect and acute toxicity. In the column of antilipemic effect in the table, the asterisked values indicate the effect achieved by orally giving 200 mg/kg of the compounds concerned, and the unmarked values, the effect attained by orally giving 100 mg/kg. In the same column, "TG" stands for percent triglycerides inhibition and "CS" percent cholesterol inhibition.
(§2) Seven-week-old male Wistar rats weighing 200 to 220 g are used, 5 rats in each group.
(§3) Each compound of the invention (100 mg or 200 mg) is dissolved in 10 ml of an olive oil-cholesterol mixture (containing 15% of cholesterol). The mixture containing the compound is orally given to the rat with a probe at a dose of 10 ml/kg. Two or 8 hours thereafter, 6 ml of whole blood is withdrawn from the descending aorta of the rat under ether anesthesia with a syringe containing heparin. The blood is centrifuged at 5° C. and 3000 r.p.m. to obtain the plasma. The plasma collected after the lapse of 2 hours is used for determining the triglycerides content, and the plasma obtained 8 hours later for determining the total cholesterol content, using a triglycerides measuring kit (trade mark "Triglycerides-B Test Wako," product of Wako Junyaku Co., Ltd., Japan) and a total cholesterol measuring kit (trade mark "Cholesterol Test Wako," product of the same), respectively. The olive oil-cholesterol mixture containing no compound is similarly given to a control group, while no treatment is conducted for a normal group. The triglycerides and total cholesterol contents in the plasma are also determined for these groups in the same manner as is the case with the test groups.
(§4) The present hyperlipidemia inhibition achieved by the present compound is given by [formula] in which A is the triglycerides (cholesterol) content of the control group, B is the triglycerides (cholesterol) content of the normal group, and C is the triglycerides (cholesterol) content of the group to which the present compound is given.

The subject of data set [2] is cholesterol. Kind of data set: Antilipemic effect: percent total cholesterol inhibition in plasma of rats given an olive oil-cholesterol mixture. It is filed as in vivo, male Wistar rats. The settings on record: for inhibition in vivo at 100 mg/kg: read-out: Anti-lipemic effect, CS (percent cholesterol inhibition); for Anti-lipemic effect, CS (percent cholesterol inhibition), asterisked: oral 200 mg/kg (asterisked values). The protocol:
as §1, §2, §3, §4

Data set [3] is described as follows: Acute toxicity. The settings on record: rat, in vivo. From the text: Six-week-old male Wistar rats weighing 180 to 200 g are used, 5 rats in each group. Each compound of the invention is suspended in a 30% aqueous solution of polyethylene glycol 6000 and orally given to the rat at the dosage shown in Table 2. The animals are checked for poisoning, body weight and survival to determine the LD50 value.

Where [4] appears, read: oral 100 mg/kg, plasma 2 hours after dosing, Wistar rat.
The mark [5] stands for this setting: oral 100 mg/kg, plasma 8 hours after dosing, Wistar rat.
[6] abbreviates: oral, six-week-old male Wistar rats, suspended in 30% aqueous polyethylene glycol 6000, read-out: LD50.
The mark [7] stands for this setting: oral 200 mg/kg (asterisked values), plasma 2 hours after dosing, Wistar rat.
Where [8] appears, read: plasma 8 hours after dosing, Wistar rat.

Broadly, the LD50 is the dose expected to kill half of the subjects tested.

Like-named read-outs stand apart in the source and are kept apart here. Some results are limits rather than exact numbers.

For `CC(C)(C)CC(=O)COS(=O)(=O)c1ccccc1` [Compound 11], the inhibition in vivo at 100 mg/kg was 80% in data set [1] (setting [4]) and 53% in data set [2] (setting [5]). The LD50 in data set [3] (po) was over 3000 mg/kg.
The corresponding values for `CC(C)CCC(=O)COS(=O)(=O)c1ccccc1` [Compound 12] are 95%, 63% and over 2500 mg/kg.
The matching figures for `CCC(=O)COS(=O)(=O)c1ccc(C)cc1` [Compound 15]: 40%, 41% and over 1500 mg/kg.
Consider `CCCC(=O)COS(=O)(=O)c1ccc(C)cc1` [Compound 16, 2-oxopentyl-p-toluenesulfonate], for which the inhibition in vivo at 100 mg/kg is 64% in data set [1] (setting [4]) and 31% in data set [2] (setting [5]). Also, the LD50 in data set [3] (setting [6]) is over 1500 mg/kg.
Consider `CCCCC(=O)COS(=O)(=O)c1ccc(C)cc1` [Compound 17], for which the inhibition in vivo at 100 mg/kg in data set [1] (setting [4]) came out at 61%; in data set [2] (setting [5]), 33%. Moreover, the LD50 in data set [3] (po) was over 2000 mg/kg.
The corresponding values for `CCCCCCCC(=O)COS(=O)(=O)c1ccc(C)cc1` [Compound 20] are 71%, 47% and over 3000 mg/kg.
Take `CCCCCCCCC(=O)COS(=O)(=O)c1ccc(C)cc1` [Compound 21]: in data set [1] (setting [7]), the inhibition in vivo at 200 mg/kg is 70%. For the same compound, in data set [2] (setting [8]), the “Anti-lipemic effect, CS (percent cholesterol inhibition), asterisked” value is recorded as 43%. In addition, the LD50 in data set [3] (po) is over 3000 mg/kg.
Regarding `CCCCC(CC)C(=O)COS(=O)(=O)c1ccc(C)cc1` (stereo not drawn) [Compound 26], the inhibition in vivo at 100 mg/kg in data set [1] (setting [4]) worked out at 85%; in data set [2] (setting [5]) it was 72%. This compound also yielded an LD50 in data set [3] (po) of over 4000 mg/kg.
Turning to `CCCC(=O)COS(=O)(=O)c1ccccc1C` [Compound 29, 2-oxopentyl-o-toluene sulfonate], the inhibition in vivo at 100 mg/kg in data set [1] (setting [4]) came out at 73%; in data set [2] (setting [5]), 30%. Besides, in data set [3] (setting [6]), the 50% lethal dose (LD50) was over 1500 mg/kg.
Turning to `CCCCC(=O)COS(=O)(=O)c1ccccc1C` [Compound 30], the values for the inhibition in vivo at 100 mg/kg in data set [1] (setting [4]) and in data set [2] (setting [5]) were 70% and 36%, respectively. This compound also returned a 50% lethal dose (LD50) in data set [3] (po) of over 1500 mg/kg.
The matching figures for `CCCC(=O)COS(=O)(=O)c1ccc(OC)cc1` [Compound 34]: 72%, 68% and over 1500 mg/kg.
For the compound `CCCCC(=O)COS(=O)(=O)c1ccc(OC)cc1` [Compound 35, 2-oxahexyl-p-methoxybenzene sulfonate], the results for the inhibition in vivo at 100 mg/kg in data set [1] (setting [4]) and in data set [2] (setting [5]) were 87% and 72%, respectively. The LD50 in data set [3] (setting [6]) is over 2000 mg/kg.
Consider `CCCCCC(=O)COS(=O)(=O)c1ccc(OC)cc1` [Compound 36], for which the figures for the inhibition in vivo at 100 mg/kg in data set [1] (setting [4]) and in data set [2] (setting [5]) were 78% and 79%, respectively. Also, the LD50 in data set [3] (po) is over 2000 mg/kg.
As for `COc1ccc(S(=O)(=O)OCC(=O)CCC(C)C)cc1` [Compound 40], the values for the inhibition in vivo at 100 mg/kg in data set [1] (setting [4]) and in data set [2] (setting [5]) were 72% and 70%, respectively. For the same compound, the LD50 in data set [3] (po) is over 2000 mg/kg.
Take `C=CCCC(=O)COS(=O)(=O)c1ccc(OC)cc1` [Compound 41]: the inhibition in vivo at 100 mg/kg is 82% in data set [1] (setting [4]) and 61% in data set [2] (setting [5]). This compound showed an LD50 in data set [3] (po) of over 2000 mg/kg.
Regarding `CCCC(=O)COS(=O)(=O)c1ccc(OCC)cc1` [Compound 43], the inhibition in vivo at 100 mg/kg in data set [1] (Rattus norvegicus, po, 2 h) was found to be 97%; in data set [2] (Rattus norvegicus, po, 8 h) it was 120%. Further, the LD50 in data set [3] (setting [6]) was over 2000 mg/kg.
Turning to `CCCCC(=O)COS(=O)(=O)c1ccc(OCC)cc1` [Compound 44], the inhibition in vivo at 100 mg/kg in data set [1] (setting [4]) came out at 99%; in data set [2] (setting [5]), 90%. In data set [3] (po), the LD50 is over 2000 mg/kg.
As for `CCCCCC(=O)COS(=O)(=O)c1ccc(OCC)cc1` [Compound 45, 2-oxoheptyl-p-ethoxybenzenesulfonate], the figures for the inhibition in vivo at 100 mg/kg in data set [1] (setting [4]) and in data set [2] (setting [5]) were 85% and 80%, respectively. Also, the LD50 in data set [3] (setting [6]) is over 3000 mg/kg.
The corresponding values for `CCCCCCC(=O)COS(=O)(=O)c1ccc(OCC)cc1` [Compound 46, 2-oxooctyl-p-ethoxybenzene sulfonate] are 65%, 62% and over 3000 mg/kg.
As to `CCCCCCCCCCC(=O)COS(=O)(=O)c1ccc(OCC)cc1` [Compound 48], in data set [1] (setting [7]), the inhibition in vivo at 200 mg/kg amounted to 72%. For the same compound, the inhibition in vivo at 100 mg/kg in data set [2] (setting [5]) was determined as 55%. Moreover, the LD50 in data set [3] (po) is over 4000 mg/kg.
In the case of `CCOc1ccc(S(=O)(=O)OCC(=O)C(C)CC)cc1` (stereo not drawn) [Compound 49], the inhibition in vivo at 100 mg/kg in data set [1] (setting [4]) is 90%; in data set [2] (setting [5]), 96%. The compound also registered an LD50 in data set [3] (po) of over 2000 mg/kg.
In the case of `CCOc1ccc(S(=O)(=O)OCC(=O)CCCCCCC(C)C)cc1` [Compound 51], the inhibition in vivo at 200 mg/kg in data set [1] (Rattus norvegicus, po, 2 h) worked out at 70%. The inhibition in vivo at 100 mg/kg in data set [2] (Rattus norvegicus, po, 8 h) was found to be 62%. Also, the LD50 in data set [3] (setting [6]) was over 4000 mg/kg.
For `C=CCCC(=O)COS(=O)(=O)c1ccc(OCC)cc1` [Compound 52], the inhibition in vivo at 100 mg/kg in data set [1] (setting [4]) is 95%; in data set [2] (setting [5]), 97%. For the same compound, the LD50 in data set [3] (po) was over 2000 mg/kg.
In the case of `CCCCOc1ccc(S(=O)(=O)OCC(=O)CCC)cc1` [Compound 53], the inhibition in vivo at 100 mg/kg in data set [1] (Rattus norvegicus, po, 2 h) was determined as 61%; in data set [2] (Rattus norvegicus, po, 8 h), 42%. Besides, in data set [3] (setting [6]), the LD50 was over 2000 mg/kg.
With `CCCCCC(=O)COS(=O)(=O)c1ccc(OCCCC)cc1` [Compound 55], in data set [1] (Rattus norvegicus, po, 2 h), the inhibition in vivo at 200 mg/kg is 69%. Moreover, the “Anti-lipemic effect, CS (percent cholesterol inhibition), asterisked” value in data set [2] (setting [8]) was 40%. The LD50 in data set [3] (setting [6]) is over 3000 mg/kg.
On to `CCCC(=O)COS(=O)(=O)c1ccc(Cl)cc1` [Compound 64], for which the inhibition in vivo at 100 mg/kg in data set [1] (setting [4]) turned out to be 82%; in data set [2] (setting [5]), 56%. The LD50 in data set [3] (po) is over 1000 mg/kg.
Regarding `CCCCC(=O)COS(=O)(=O)c1ccc(Cl)cc1` [Compound 65], the inhibition in vivo at 100 mg/kg in data set [1] (setting [4]) is 87%; in data set [2] (setting [5]), 49%. Also, in data set [3] (po), the LD50 is over 1000 mg/kg.
The matching figures for `CC(C)CCC(=O)COS(=O)(=O)c1ccc(Cl)cc1` [Compound 70]: 82%, 47% and over 2000 mg/kg.
The matching figures for `CCC(=O)COS(=O)(=O)c1c(C)cc(C)cc1C` [Compound 72]: 91%, 90% and over 3000 mg/kg.
The corresponding values for `CCCCC(=O)COS(=O)(=O)c1c(C)cc(C)cc1C` [Compound 74] are 77%, 87% and over 3000 mg/kg.
Take `CCCCCC(=O)COS(=O)(=O)c1c(C)cc(C)cc1C` [Compound 75]: the inhibition in vivo at 100 mg/kg in data set [1] (setting [4]) is 53%; in data set [2] (setting [5]) it was 60%. The LD50 in data set [3] (po) was over 3000 mg/kg.
The matching figures for `CCCCCCC(=O)COS(=O)(=O)c1c(C)cc(C)cc1C` [Compound 76]: 55%, 62% and over 4000 mg/kg.
`CCCCCCCC(=O)COS(=O)(=O)c1c(C)cc(C)cc1C` [Compound 77, 2-oxononanyl-2,4,6-trimethylbenzene sulfonate]: the inhibition in vivo at 100 mg/kg stood at 80% in data set [1] (setting [4]) and 74% in data set [2] (setting [5]). Besides, the LD50 in data set [3] (setting [6]) is over 4000 mg/kg.
